Measurements reported in patent publication US7396837B2, “Antitumoral analogs of lamellarins” (Pharma Mar, S.A.U., priority 2002, dated 2008).
Like-named read-outs stand apart in the source and are kept apart here.

Tests used:
Type in all cases: cell-based
[1] = tested on: K-562; assay: SRB colorimetric cell growth inhibition assay, K-562; conditions: Homo sapiens
Outline: (§1)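 Quantitation uses the sulforhodamine B reaction on cells exposed to sample for the whole assay period; results (mean ± SD, n = 3 wells) yield GI, TGI and LC.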

[2] = tested on: A-549; assay: SRB colorimetric cell growth inhibition assay, A-549; conditions: Homo sapiens
Outline: as §1

[3] = tested on: SK-MEL-28; assay: SRB colorimetric cell growth inhibition assay, SK-MEL-28; conditions: Homo sapiens
Outline: as §1

[4] = tested on: HT-29; assay: SRB colorimetric cell growth inhibition assay, HT-29; conditions: Homo sapiens
Outline: as §1

[5] = tested on: LoVo; assay: SRB colorimetric cell growth inhibition assay, LoVo; conditions: Homo sapiens, LoVo; for GI50: read-out: GI50 LOVO; for CC50: read-out: LC50 LOVO; for IC (TGI): read-out: TGI LOVO
Outline: as §1

[6] = tested on: LoVo-Dox; assay: SRB colorimetric cell growth inhibition assay, LoVo-Dox (MDR); conditions: Homo sapiens; for GI50: read-out: GI50 LOVO-DOX; for CC50: read-out: LC50 LOVO-DOX; for IC (TGI): read-out: TGI LOVO-DOX
Outline: as §1

[7] = tested on: DU-145; assay: SRB colorimetric cell growth inhibition assay, DU-145; conditions: Homo sapiens
Outline: as §1

[8] = tested on: LNCaP; assay: SRB colorimetric cell growth inhibition assay, LNCaP; conditions: Homo sapiens, LNCaP; for GI50: read-out: GI50 LN-caP; for CC50: read-out: LC50 LN-caP; for IC (TGI): read-out: TGI LN-caP
Outline: as §1

[9] = tested on: SK-BR-3; assay: SRB colorimetric cell growth inhibition assay, SK-BR-3; conditions: Homo sapiens
Outline: as §1

[10] = tested on: IGROV; assay: SRB colorimetric cell growth inhibition assay, IGROV; conditions: Homo sapiens, IGROV; for GI50: read-out: GI50 IGROV; for CC50: read-out: LC50 IGROV; for IC (TGI): read-out: TGI IGROV
Outline: as §1

[11] = tested on: IGROV-ET; assay: SRB colorimetric cell growth inhibition assay, IGROV-ET (ET-743 resistant); conditions: Homo sapiens; for GI50: read-out: GI50 IGROV-ET; for CC50: read-out: LC50 IGROV-ET; for IC (TGI): read-out: TGI IGROV-ET
Outline: as §1

[12] = tested on: HeLa; assay: SRB colorimetric cell growth inhibition assay, HeLa; conditions: Homo sapiens, HeLa; for GI50: read-out: GI50 HELA; for CC50: read-out: LC50 HELA; for IC (TGI): read-out: TGI HELA
Outline: as §1

[13] = tested on: HeLa-APL; assay: SRB colorimetric cell growth inhibition assay, HeLa-APL (aplidine resistant); conditions: Homo sapiens; for GI50: read-out: GI50 HELA-APL; for CC50: read-out: LC50 HELA-APL; for IC (TGI): read-out: TGI HELA-APL
Outline: as §1

[14] = tested on: PANC-1; assay: SRB colorimetric cell growth inhibition assay, PANC-1; conditions: Homo sapiens
Outline: as §1

[15] = cell killing (cytotoxic effect)
[16] = total growth inhibition (cytostatic effect)

## COc1cc(-c2c3c4cc(OC)c(OC(=O)[C@H](C)NC(=O)[C@H](C)NC(=O)OC(C)(C)C)cc4oc(=O)c3n3ccc4c(OC(=O)[C@H](C)NC(=O)[C@H](C)NC(=O)OC(C)(C)C)c(OC)c(OC)cc4c23)ccc1OC(=O)[C@H](C)NC(=O)[C@H](C)NC(=O)OC(C)(C)C [Compound 6]
[1]; K562, read-out: GI50 K-562
  GI50: 0.482 µM
[1]; K562, read-out: LC50 K-562
  CC50: 7.96 µM
[1]; K562, read-out: TGI K-562
  IC (TGI): 5.38 µM
[2]; A549, read-out: GI50 A-549
  GI50: 0.497 µM
[2]; A549, read-out: LC50 A-549
  CC50: 7.96 µM
[2]; A549, read-out: TGI A-549
  IC (TGI): 7.96 µM
[3]; SK-MEL-28, read-out: GI50 MEL-28
  GI50: 0.386 µM
[3]; SK-MEL-28, read-out: LC50 MEL-28
  CC50: 7.96 µM
[3]; SK-MEL-28, read-out: TGI MEL-28
  IC (TGI): 1.74 µM
[4]; HT-29, read-out: GI50 HT-29
  GI50: 7.96 µM
[4]; HT-29, read-out: LC50 HT-29
  CC50: 7.96 µM
[4]; HT-29, read-out: TGI HT-29
  IC (TGI): 7.96 µM
[5]
  GI50: 2.79 µM
  CC50: 7.96 µM
  IC (TGI): 7.96 µM
[6]
  GI50: 3.84 µM
  CC50: 7.96 µM
  IC (TGI): 7.96 µM
[7]; DU-145, read-out: GI50 DU-145
  GI50: 0.355 µM
[7]; DU-145, read-out: LC50 DU-145
  CC50: 7.96 µM
[7]; DU-145, read-out: TGI DU-145
  IC (TGI): 1.46 µM
[8]
  GI50: 0.578 µM
  CC50: 7.96 µM
  IC (TGI): 7.96 µM
[9]; SK-BR-3, read-out: GI50 SK-BR-3
  GI50: 0.548 µM
[9]; SK-BR-3, read-out: LC50 SK-BR-3
  CC50: 7.96 µM
[9]; SK-BR-3, read-out: TGI SK-BR-3
  IC (TGI): 2.56 µM
[10]
  GI50: 0.963 µM
  CC50: 7.96 µM
  IC (TGI): 7.96 µM
[11]
  GI50: 1.39 µM
  CC50: 7.96 µM
  IC (TGI): 7.96 µM
[12]
  GI50: 0.584 µM
  CC50: 7.96 µM
  IC (TGI): 7.96 µM
[13]
  GI50: 3.41 µM
  CC50: 7.96 µM
  IC (TGI): 7.96 µM
[14]; PANC-1, read-out: GI50 PANC-1
  GI50: 2.46 µM
[14]; PANC-1, read-out: LC50 PANC-1
  CC50: 7.96 µM
[14]; PANC-1, read-out: TGI PANC-1
  IC (TGI): 7.96 µM

## COc1cc2ccn3c(c(-c4ccc(OC(=O)[C@@H](NC(=O)OC(C)(C)C)C(C)C)c(OC)c4)c4c5cc(OC)c(OC(=O)[C@@H](NC(=O)OC(C)(C)C)C(C)C)cc5oc(=O)c43)c2cc1OC [Compound 15]
[1]; K562, K-562, GI=growth inhibition, read-out: GI50 K-562
  GI50: 1.6 µM
[1]; K562, K-562, cell killing (cytotoxic effect), read-out: LC50 K-562
  CC50: 9.57 µM
[1]; K562, K-562, total growth inhibition (cytostatic effect), read-out: TGI K-562
  IC (TGI): 3.91 µM
[2]; A549, A-549, GI=growth inhibition, read-out: GI50 A-549
  GI50: 0.0541 µM
[2]; A549, A-549, cell killing (cytotoxic effect), read-out: LC50 A-549
  CC50: 11 µM
[2]; A549, A-549, total growth inhibition (cytostatic effect), read-out: TGI A-549
  IC (TGI): 1.46 µM
[3]; SK-MEL-28, MEL-28, GI=growth inhibition, read-out: GI50 MEL-28
  GI50: 0.0482 µM
[3]; SK-MEL-28, MEL-28, cell killing (cytotoxic effect), read-out: LC50 MEL-28
  CC50: 7.24 µM
[3]; SK-MEL-28, MEL-28, total growth inhibition (cytostatic effect), read-out: TGI MEL-28
  IC (TGI): 1.64 µM
[4]; HT-29, HT-29, GI=growth inhibition, read-out: GI50 HT-29
  GI50: 0.0473 µM
[4]; HT-29, HT-29, cell killing (cytotoxic effect), read-out: LC50 HT-29
  CC50: 9.17 µM
[4]; HT-29, HT-29, total growth inhibition (cytostatic effect), read-out: TGI HT-29
  IC (TGI): 0.111 µM
[5]; GI=growth inhibition
  GI50: 1.68 µM
[5]; [15]
  CC50: 11 µM
[5]; [16]
  IC (TGI): 4.96 µM
[6]; LOVO-DOX, GI=growth inhibition
  GI50: 11 µM
[6]; LOVO-DOX, cell killing (cytotoxic effect)
  CC50: 11 µM
[6]; LOVO-DOX, total growth inhibition (cytostatic effect)
  IC (TGI): 11 µM
[7]; DU-145, DU-145, GI=growth inhibition, read-out: GI50 DU-145
  GI50: 0.0685 µM
[7]; DU-145, DU-145, cell killing (cytotoxic effect), read-out: LC50 DU-145
  CC50: 11 µM
[7]; DU-145, DU-145, total growth inhibition (cytostatic effect), read-out: TGI DU-145
  IC (TGI): 3.08 µM
[8]; LN-caP, GI=growth inhibition
  GI50: 0.056 µM
[8]; LN-caP, cell killing (cytotoxic effect)
  CC50: 3.93 µM
[8]; LN-caP, total growth inhibition (cytostatic effect)
  IC (TGI): 0.609 µM
[9]; SK-BR-3, SK-BR-3, GI=growth inhibition, read-out: GI50 SK-BR-3
  GI50: 0.0561 µM
[9]; SK-BR-3, SK-BR-3, cell killing (cytotoxic effect), read-out: LC50 SK-BR-3
  CC50: 5.84 µM
[9]; SK-BR-3, SK-BR-3, total growth inhibition (cytostatic effect), read-out: TGI SK-BR-3
  IC (TGI): 0.635 µM
[10]; GI=growth inhibition
  GI50: 0.0862 µM
[10]; [15]
  CC50: 9.76 µM
[10]; [16]
  IC (TGI): 2.03 µM
[11]; IGROV-ET, GI=growth inhibition
  GI50: 6.87 µM
[11]; IGROV-ET, cell killing (cytotoxic effect)
  CC50: 11 µM
[11]; IGROV-ET, total growth inhibition (cytostatic effect)
  IC (TGI): 11 µM
[12]; GI=growth inhibition
  GI50: 0.0579 µM
[12]; [15]
  CC50: 7.81 µM
[12]; [16]
  IC (TGI): 1.41 µM
[13]; HELA-APL, GI=growth inhibition
  GI50: 2.43 µM
[13]; HELA-APL, cell killing (cytotoxic effect)
  CC50: 11 µM
[13]; HELA-APL, total growth inhibition (cytostatic effect)
  IC (TGI): 5.53 µM
[14]; PANC-1, PANC-1, GI=growth inhibition, read-out: GI50 PANC-1
  GI50: 1.54 µM
[14]; PANC-1, PANC-1, cell killing (cytotoxic effect), read-out: LC50 PANC-1
  CC50: 11 µM
[14]; PANC-1, PANC-1, total growth inhibition (cytostatic effect), read-out: TGI PANC-1
  IC (TGI): 5.26 µM
